From the supplement of paper PMC11208160 come the findings set out here.
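Further: IS621 bridge recombinase in Escherichia coli cells against a fixed T5 target plasmid.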

The data set is described as follows: recombinant UMI read abundance after kanamycin selection (control-corrected) (log10(CPM+1)); higher = more efficient recombination; extreme values may be limits of the assay; sequences stand for … in AGTGCAGAGAAAATCGGCCAGTTTTCTCTGCCTGCAGTCCGCATGCCGTGGGACCCCTTGGGTTCTAACCTGTTGCCTAGATTTATGCAGCGGACTGCCTTTCTCCCAAAGTGATAAACCGG…AGGTTGGTTTCACT; site = the 11-nt donor. Put shortly:
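Pooled Escherichia coli screen of donor and donor-binding-loop pairs for the IS621 bridge recombinase. Each pair sits with a 12-nt UMI on a plasmid carrying a promoterless kanamycin gene. The library was co-electroporated with a target plasmid encoding a fixed target and T7-inducible recombinase, then plated with IPTG (0.07 mM) plus kanamycin, or unselected, each in two replicates. Recombinant UMIs were PCR-amplified across the donor–target junction and sequenced. Counts became CPM, averaged over replicates, scaled by control-derived factors and reported as log10(CPM+1).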
As for “CCTAATACATGGACCGGTTTTCCCGGTAATCCGTATTTGAC (site CCTAATACTGT)”, the “recombinant UMI read abundance (log10)” value was determined as 0.
Then “CCTAATTCATGGACCGGTTTTCCCGGTAATCCGTATTTGGC (site CCTAATACTGC)”, with 0; and “CCTAATTCATGGACCGGTTTTCCCGGTAATCCGTATTTGGC (site CCTAATCCTGC)”, with 0.
On to “CCTAATTCATGGACCGGTTTTCCCGGTAATCCGTATTTGGC (site CCTAATGCTGC)”, for which the “recombinant UMI read abundance (log10)” value turned out to be 0.
Under “CCTAATTCATGGACCGGTTTTCCCGGTAATCCGTATTTGGC (site CCTAATTCTGC)” stands 0; under “CCTAGAACATGGACCGGTTTTCCCGGTAATCCGTATTTGAG (site ACTAGAACTCT)”, 0.00253.
For “CCTAGAACATGGACCGGTTTTCCCGGTAATCCGTATTTGAG (site CCTAGAACTCT)”, the “recombinant UMI read abundance (log10)” value was determined as 0.00591.
Under “CCTAGAACATGGACCGGTTTTCCCGGTAATCCGTATTTGAG (site GCTAGAACTCT)” stands 0.0133; under “CCTAGAACATGGACCGGTTTTCCCGGTAATCCGTATTTGAG (site TCTAGAACTCT)”, 0.00636; under “CCTAGAGCATGGACCGGTTTTCCCGGTAATCCGTATTTGTT (site CCTAGAGCTAA)”, 0.633.
As to “CCTAGGTCATGGACCGGTTTTCCCGGTAATCCGTATTTGCC (site CCTAGGTCTGG)”, the “recombinant UMI read abundance (log10)” value turned out to be 0.
Then “CCTAGTGCATGGACCGGTTTTCCCGGTAATCCGTATTTGGT (site ACTAGTGCTAC)”, with 0.00584.
Regarding “CCTAGTGCATGGACCGGTTTTCCCGGTAATCCGTATTTGGT (site CCTAGTGCTAC)”, the “recombinant UMI read abundance (log10)” value is 0.533.
As for “CCTAGTGCATGGACCGGTTTTCCCGGTAATCCGTATTTGGT (site GCTAGTGCTAC)”, the “recombinant UMI read abundance (log10)” value is 0.0365.
Then “CCTAGTGCATGGACCGGTTTTCCCGGTAATCCGTATTTGGT (site TCTAGTGCTAC)”, with 0.0125.
Under “CCTATATCATGGACCGGTTTTCCCGGTAATCCGTATTTGTC (site CCAATATCTGA)” stands 0; under “CCTATATCATGGACCGGTTTTCCCGGTAATCCGTATTTGTC (site CCCATATCTGA)”, 0.00678; under “CCTATATCATGGACCGGTTTTCCCGGTAATCCGTATTTGTC (site CCGATATCTGA)”, 0.
Under “CCTATATCATGGACCGGTTTTCCCGGTAATCCGTATTTGTC (site CCTATATCTGA)” stands 0; under “CCTCACACATGGACCGGTTTTCCCGGTAATCCGTATTTGTA (site CCACACACTTA)”, 0; under “CCTCACACATGGACCGGTTTTCCCGGTAATCCGTATTTGTA (site CCCCACACTTA)”, 0.0116.
Take “CCTCACACATGGACCGGTTTTCCCGGTAATCCGTATTTGTA (site CCGCACACTTA)”: the “recombinant UMI read abundance (log10)” value is 0.0283.
Take “CCTCACACATGGACCGGTTTTCCCGGTAATCCGTATTTGTA (site CCTCACACTTA)”: the “recombinant UMI read abundance (log10)” value is 0.166.
Then “CCTCGAGCATGGACCGGTTTTCCCGGTAATCCGTATTTGTG (site CCTCGAGCTCA)”, with 0.234.
Turning to “CCTCTTGCATGGACCGGTTTTCCCGGTAATCCGTATTTGAG (site CCTCTTGCTCT)”, the “recombinant UMI read abundance (log10)” value was determined as 0.0146.
Under “CCTCTTTCATGGACCGGTTTTCCCGGTAATCCGTATTTGAG (site CCTCTTTCTCT)” stands 0.00323.
Under “CCTGAAGCATGGACCGGTTTTCCCGGTAATCCGTATTTGAT (site CCTAAAGCTAT)” stands 0.231; under “CCTGAAGCATGGACCGGTTTTCCCGGTAATCCGTATTTGAT (site CCTCAAGCTAT)”, 0; under “CCTGAAGCATGGACCGGTTTTCCCGGTAATCCGTATTTGAT (site CCTGAAGCTAT)”, 0.209.
“CCTGAAGCATGGACCGGTTTTCCCGGTAATCCGTATTTGAT (site CCTTAAGCTAT)”: the “recombinant UMI read abundance (log10)” value was 0.
With “CCTGATACATGGACCGGTTTTCCCGGTAATCCGTATTTGGC (site CCTAATACTGC)”, the “recombinant UMI read abundance (log10)” value was 0.
Then “CCTGATACATGGACCGGTTTTCCCGGTAATCCGTATTTGGC (site CCTCATACTGC)”, with 0; and “CCTGATACATGGACCGGTTTTCCCGGTAATCCGTATTTGGC (site CCTGATACTGC)”, with 0; and “CCTGATACATGGACCGGTTTTCCCGGTAATCCGTATTTGGC (site CCTTATACTGC)”, with 0.
Regarding “CCTGCACCATGGACCGGTTTTCCCGGTAATCCGTATTTGGA (site CCTGCACCTTC)”, the “recombinant UMI read abundance (log10)” value is 0.00678.
Under “CCTGCTACATGGACCGGTTTTCCCGGTAATCCGTATTTGCG (site CCTGCTACTCG)” stands 0.0136; under “CCTGGCACATGGACCGGTTTTCCCGGTAATCCGTATTTGAA (site CCTGGCACTTT)”, 0.0111; under “CCTGGTGCATGGACCGGTTTTCCCGGTAATCCGTATTTGTA (site CCTGGTGCTTA)”, 0.698.
Take “CCTGTAGCATGGACCGGTTTTCCCGGTAATCCGTATTTGAG (site CCTGTAGCTCT)”: the “recombinant UMI read abundance (log10)” value stood at 0.443.
As for “CCTGTATCATGGACCGGTTTTCCCGGTAATCCGTATTTGCA (site ACAGTATCTTG)”, the “recombinant UMI read abundance (log10)” value came out at 0.
Then “CCTGTATCATGGACCGGTTTTCCCGGTAATCCGTATTTGCA (site CCTGTATCTTG)”, with 0.
Then “CCTGTCGCATGGACCGGTTTTCCCGGTAATCCGTATTTGAG (site CCTGTCGCTCT)”, with 0.909; and “CCTGTGGCATGGACCGGTTTTCCCGGTAATCCGTATTTGTA (site CCTGTGGCTTA)”, with 0.327; and “CCTTAAGCATGGACCGGTTTTCCCGGTAATCCGTATTTGAT (site CCTAAAGCTAT)”, with 0.
On to “CCTTAAGCATGGACCGGTTTTCCCGGTAATCCGTATTTGAT (site CCTCAAGCTAT)”, for which the “recombinant UMI read abundance (log10)” value came out at 0.0107.
Under “CCTTAAGCATGGACCGGTTTTCCCGGTAATCCGTATTTGAT (site CCTGAAGCTAT)” stands 0; under “CCTTAAGCATGGACCGGTTTTCCCGGTAATCCGTATTTGAT (site CCTTAAGCTAT)”, 0.00726; under “CCTTAGACATGGACCGGTTTTCCCGGTAATCCGTATTTGAG (site CATTAGACTCT)”, 0.0191.
Under “CCTTAGACATGGACCGGTTTTCCCGGTAATCCGTATTTGAG (site CCTTAGACTCT)” stands 0.0167; under “CCTTAGACATGGACCGGTTTTCCCGGTAATCCGTATTTGAG (site CGTTAGACTCT)”, 0.0159.
Then “CCTTAGACATGGACCGGTTTTCCCGGTAATCCGTATTTGAG (site CTTTAGACTCT)”, with 0.0107.
Turning to “CCTTGTCCATGGACCGGTTTTCCCGGTAATCCGTATTTGCG (site CCTTGTCCTCG)”, the “recombinant UMI read abundance (log10)” value came out at 0.00291.
On to “CCTTTACCATGGACCGGTTTTCCCGGTAATCCGTATTTGAA (site CCTTTACCTTT)”, for which the “recombinant UMI read abundance (log10)” value was found to be 0.019.
Then “CCTTTCTCATGGACCGGTTTTCCCGGTAATCCGTATTTGCG (site CCTTTCTCTCG)”, with 0; and “CCTTTGCCATGGACCGGTTTTCCCGGTAATCCGTATTTGTG (site CCTTTGCCTCA)”, with 0.00549.
In the case of “CGAACATCATGGACCGGTTTTCCCGGTAATCCGTATTTGCC (site CGAACATCTGG)”, the “recombinant UMI read abundance (log10)” value was found to be 0.671.
For “CGAACATCATGGACCGGTTTTCCCGGTAATCCGTATTTGCC (site CGATCATCTAG)”, the “recombinant UMI read abundance (log10)” value was determined as 0.
On to “CGAACATCATGGACCGGTTTTCCCGGTAATCCGTATTTGCT (site CGAACATCTAG)”, for which the “recombinant UMI read abundance (log10)” value came to 2.13.
Then “CGAACATCATGGACCGGTTTTCCCGGTAATCCGTATTTGCT (site CGACCATCTAG)”, with 0.469; and “CGAACATCATGGACCGGTTTTCCCGGTAATCCGTATTTGCT (site CGAGCATCTAG)”, with 1.39; and “CGAACATCATGGACCGGTTTTCCCGGTAATCCGTATTTGCT (site CGATCATCTAG)”, with 0.
For the sequence “CGAACATCATGGACCGGTTTTCCCGGTAATCCGTATTTGCT (site CGCACATCTAG)”, the “recombinant UMI read abundance (log10)” value is 0.
Under “CGAACATCATGGACCGGTTTTCCCGGTAATCCGTATTTGCT (site CGGACATCTAG)” stands 0.583; under “CGAACATCATGGACCGGTTTTCCCGGTAATCCGTATTTGCT (site CGTACATCTAG)”, 0.
Then “CGAACTACATGGACCGGTTTTCCCGGTAATCCGTATTTGAG (site CGAACTACTCT)”, with 1.95; and “CGAAGCCCATGGACCGGTTTTCCCGGTAATCCGTATTTGAT (site CGAAGCCCTAT)”, with 1.22.
For “CGACAATCATGGACCGGTTTTCCCGGTAATCCGTATTTGCT (site CGACAATCTAG)”, the “recombinant UMI read abundance (log10)” value turned out to be 2.77.
Under “CGACAATCATGGACCGGTTTTCCCGGTAATCCGTATTTGCT (site CGATCATCTAG)” stands 0.
